In ChEMBL document CHEMBL1122681, “(Acylaryloxy)acetic acid diuretics. 5. [(2-Alkyl- and 2,2-disubstituted-1,3-dioxo-5-indanyl)oxy]acetic acids” (J Med Chem, 1984):

Legend:
Pan troglodytes [1] = test: (§1) Compound was evaluated for diuretic activity in chimpanzee measured as increase in volume of urine at 1 mg/kg; type: ADME, organism-based; design: dose 1 mg/kg; settings: in vivo
Pan troglodytes [2] = test: Compound was evaluated for diuretic activity in chimpanzee measured as increase in volume of urine at 5 mg/kg; type: functional
Pan troglodytes [3] = test: Compound was evaluated for diuretic activity in chimpanzee measured as clearance of […] and urate after intra venous administration of 5 mg/kg.; type: functional, Urine
Pan troglodytes [4] = test: Compound was evaluated for diuretic activity in chimpanzee measured as clearance of […] and urate after peroral administration of 5 mg/kg; type: functional, Urine; settings: route oral
Pan troglodytes [5] = test: (§2) Compound was evaluated for diuretic activity in chimpanzee measured as increase in the number of microequivalents of Na+ /min at 1 mg/kg; type: functional, Urine
Pan troglodytes [6] = test: Compound was evaluated for diuretic activity in chimpanzee measured as increase in the number of microequivalents of Na+ /min at 5 mg/kg; type: functional, Urine
Pan troglodytes [7] = test: (§3) Compound was evaluated for diuretic activity in chimpanzee measured as increase in the number of microequivalents of Cl- electrolyte/min at 1 mg/kg; type: functional, Urine
Pan troglodytes [8] = test: Compound was evaluated for diuretic activity in chimpanzee measured as increase in the number of microequivalents of K+ /min at 1 mg/kg; type: functional, Urine
Pan troglodytes [9] = test: Compound was evaluated for diuretic activity in chimpanzee measured as increase in the number of microequivalents of K+ /min at 5 mg/kg; type: functional, Urine
Pan troglodytes [10] = test: Compound was evaluated for diuretic activity in chimpanzee measured as increase in the number of microequivalents of cl-/min at 5 mg/kg; type: functional, Urine
Canis familiaris [11] = test: (§4) Compound was evaluated for diuretic activity, in female mongrel dogs by measuring volume of urine, after iv administration of 5 mg/kg (control/compound treatment results) Control = 1; type: ADME, organism-based, Canis lupus familiaris; design: dose 5 mg/kg, route intravenous; settings: dog, in vivo
Canis familiaris [12] = species: Canis familiaris; test: Volume of urine in dog; type: ADME, organism-based, Canis lupus familiaris; settings: in vivo
[13] = volume of urine at 3 mg/kg; type: ADME, organism-based; design: dose 3 mg/kg; settings: in vivo
[14] = volume of urine at 81 mg/kg; type: ADME, organism-based; design: dose 81 mg/kg; settings: in vivo
[15] = volume of urine at 9 mg/kg; type: ADME, organism-based; design: dose 9 mg/kg; settings: in vivo
Pan troglodytes [16] = test: as §1; type: functional
Pan troglodytes [17] = test: Compound was evaluated for diuretic activity in chimpanzee measured as clearance of […] and urate after intra venous administration of 1 mg/kg.; type: functional, Urine
Pan troglodytes [18] = test: Compound was evaluated for diuretic activity in chimpanzee measured as increase in the number of microequivalents of Cl- electrolyte/min at 5 mg/kg; type: functional, Urine
Canis familiaris [19] = test: Compound was evaluated for diuretic activity, in female mongrel dogs by measuring amount of K+ in urine after iv administration of 5 mg/kg (control/compound treatment results) Control = 13; type: functional, Canis lupus familiaris
Canis familiaris [20] = test: Compound was evaluated for diuretic activity, in female mongrel dogs by measuring amount of Cl- in urine after iv administration of 5 mg/kg (control/compound treatment results) Control = 6; type: functional, Canis lupus familiaris
Canis familiaris [21] = test: Compound was evaluated for diuretic activity, in female mongrel dogs by measuring amount of Na+ in urine after iv administration of 5 mg/kg (control/compound treatment results) Control = 79; type: functional, Canis lupus familiaris
Canis familiaris [22] = test: Compound was evaluated for diuretic activity, administered orally in female mongrel dogs (5 mg/kg) measured as milliequivalents of Cl-; type: functional, Canis lupus familiaris, Urine
Canis familiaris [23] = test: Compound was evaluated for diuretic activity, administered orally in female mongrel dogs (5 mg/kg) measured as milliequivalents of K; type: functional, Canis lupus familiaris, Urine
Canis familiaris [24] = test: Compound was evaluated for diuretic activity, administered orally in female mongrel dogs (5 mg/kg) measured as milliequivalents of Na; type: functional, Canis lupus familiaris, Urine
Rattus norvegicus [25] = test: Compound was evaluated for diuretic activity administered orally in female rats measured as milliequivalents of Na+x 100 / cage at 81 mg/kg; type: functional, Urine; settings: route oral
Rattus norvegicus [26] = test: Compound was evaluated for diuretic activity administered orally in female rats measured as milliequivalents of Na+x 100 / cage at 9 mg/kg; type: functional, Urine; settings: route oral
Rattus norvegicus [27] = test: Compound was evaluated for diuretic activity administered orally in female rats measured as milliequivalents of Cl-+x 100 / cage at 27 mg/kg; type: functional, Urine; settings: route oral
Rattus norvegicus [28] = test: Compound was evaluated for diuretic activity administered orally in female rats measured as milliequivalents of Cl-x 100 / cage at 3 mg/kg; type: functional, Urine; settings: route oral
Rattus norvegicus [29] = test: Compound was evaluated for diuretic activity administered orally in female rats measured as milliequivalents of Cl-x 100 / cage at 81 mg/kg; type: functional, Urine; settings: route oral
Rattus norvegicus [30] = test: Compound was evaluated for diuretic activity administered orally in female rats measured as milliequivalents of Cl-x 100 / cage at 9 mg/kg; type: functional, Urine; settings: route oral
Rattus norvegicus [31] = test: Compound was evaluated for diuretic activity administered orally in female rats measured as milliequivalents of K+x 100 / cage at 27 mg/kg; type: functional, Urine; settings: route oral
Rattus norvegicus [32] = test: Compound was evaluated for diuretic activity administered orally in female rats measured as milliequivalents of K+x 100 / cage at 3 mg/kg; type: functional, Urine; settings: route oral
Rattus norvegicus [33] = test: Compound was evaluated for diuretic activity administered orally in female rats measured as milliequivalents of K+x 100 / cage at 81 mg/kg; type: functional, Urine; settings: route oral
Rattus norvegicus [34] = test: Compound was evaluated for diuretic activity administered orally in female rats measured as milliequivalents of K+x 100 / cage at 9 mg/kg; type: functional, Urine; settings: route oral
Rattus norvegicus [35] = test: Compound was evaluated for diuretic activity administered orally in female rats measured as milliequivalents of Na+x 100 / cage at 27 mg/kg; type: functional, Urine; settings: route oral
Rattus norvegicus [36] = test: Compound was evaluated for diuretic activity administered orally in female rats measured as milliequivalents of Na+x 100 / cage at 3 mg/kg; type: functional, Urine; settings: route oral
[37] = volume of urine at 27 mg/kg; type: ADME, organism-based; design: dose 27 mg/kg; settings: in vivo
Pan troglodytes [38] = test: Compound was evaluated for diuretic activity in chimpanzee measured as clearance of […] and urate after intra venous administration of 0. 5 mg/kg.; type: functional, Urine
Pan troglodytes [39] = test: as §2; type: functional, Urine; remark: listed apart in the source
Pan troglodytes [40] = test: Compound was evaluated for diuretic activity in chimpanzee measured as increase in volume of urine at 0.5 mg/kg; type: functional
Pan troglodytes [41] = test: as §3; type: functional, Urine; remark: listed apart in the source
Pan troglodytes [42] = test: Compound was evaluated for diuretic activity in chimpanzee measured as increase in the number of microequivalents of K+ /min at 0.5 mg/kg; type: functional, Urine
Pan troglodytes [43] = test: Compound was evaluated for diuretic activity in chimpanzee measured as increase in the number of microequivalents of Na+ /min at 0.5 mg/kg; type: functional, Urine
Pan troglodytes [44] = test: Compound was evaluated for diuretic activity in chimpanzee measured as clearance of […] and urate after intra venous administration of 1 mg/kg; type: functional, Urine
Canis familiaris [45] = test: as §4; type: functional, Canis lupus familiaris
Canis familiaris [46] = test: Compound was evaluated for diuretic activity, in female mongrel dogs by measuring amount of K+ in urine after iv administration of 5 mg/kg (control/compound treatment results) Control = 5; type: functional, Canis lupus familiaris
Canis familiaris [47] = test: Compound was evaluated for diuretic activity, in female mongrel dogs by measuring amount of Na+ in urine after iv administration of 5 mg/kg (control/compound treatment results) Control = 37; type: functional, Canis lupus familiaris
Canis familiaris [48] = species: Canis familiaris; test: volume of urine in dog; type: ADME, organism-based, Canis lupus familiaris; settings: in vivo
Canis familiaris [49] = test: Compound was evaluated for diuretic activity, in female mongrel dogs by measuring amount of Cl- in urine after iv administration of 5 mg/kg (control/compound treatment results) Control = 1; type: functional, Canis lupus familiaris
Canis familiaris [50] = test: Compound was evaluated for diuretic activity, in female mongrel dogs by measuring amount of K+ in urine after iv administration of 5 mg/kg (control/compound treatment results) Control = 18; type: functional, Canis lupus familiaris
Canis familiaris [51] = test: Compound was evaluated for diuretic activity, in female mongrel dogs by measuring amount of Na+ in urine after iv administration of 5 mg/kg (control/compound treatment results) Control = 29; type: functional, Canis lupus familiaris

Row | Compound | Increase in volume (Pan troglodytes [2]) [mL/min] | Delta C urate / delta C insulin (Pan troglodytes [4]) | Increase (Pan troglodytes [5]) | Increase (Pan troglodytes [6]) | Increase (Pan troglodytes [7]) | Increase (Pan troglodytes [8]) | Increase (Pan troglodytes [9]) | Urine volume (Canis familiaris [11]) [mL/min] | Urine volume (Canis familiaris [12]) [mL] | Urine volume [13] [mL] | Urine volume [14] [mL] | Urine volume [15] [mL] | Increase in volume (Pan troglodytes [16]) [mL/min] | Delta C urate / delta C insulin (Pan troglodytes [17]) | Increase (Pan troglodytes [18]) | Activity (Canis familiaris [20]) [u equiv min-1] | Activity (Canis familiaris [22]) | Activity (Canis familiaris [23]) | Activity (Canis familiaris [24]) | Activity (Rattus norvegicus [25]) | further results
1 | CCC1C(=O)c2cc(OC)c(Cl)c(Cl)c2C1=O (stereo unspecified) | 0.1 | 0.008 | 3 | 4 | 13 | 26 | 27 | – | – | – | – | – | – | – | – | – | – | – | – | – | Increase in volume (Pan troglodytes [1]): 0.1 mL/min; Delta C urate / delta C insulin (Pan troglodytes [3]): 0; Increase (Pan troglodytes [10]): 10
2 | CCC1(CC)C(=O)c2cc(OCC(=O)O)c(C)c(Cl)c2C1=O | 2.7 | 0.138 | 25 | 290 | 123 | 131 | 132 | 2 | 570 | 27 | 38 | 26 | 0.4 | 0.082 | 285 | 157 | 10 | 5 | 7 | 251 | Activity (Canis familiaris [19]): 27 u equiv min-1; Activity (Canis familiaris [21]): 259 u equiv min-1; Activity (Rattus norvegicus [26]): 92; Activity (Rattus norvegicus [27]): 222; Activity (Rattus norvegicus [28]): 82; Activity (Rattus norvegicus [29]): 369; Activity (Rattus norvegicus [30]): 124; Activity (Rattus norvegicus [31]): 62; Activity (Rattus norvegicus [32]): 29; Activity (Rattus norvegicus [33]): 106; Activity (Rattus norvegicus [34]): 43; Activity (Rattus norvegicus [35]): 158; Activity (Rattus norvegicus [36]): 70; Urine volume [37]: 33 mL
3 | CC1(c2ccccc2)C(=O)c2cc(OCC(=O)O)c(Cl)c(Cl)c2C1=O (stereo unspecified) | – | 0.043 | – | – | 36 | 25 | – | – | – | – | – | – | 0.6 | – | – | – | – | – | – | – | Delta C urate / delta C insulin (Pan troglodytes [38]): 0.01; Increase (Pan troglodytes [39]): 2; Increase in volume (Pan troglodytes [40]): 0.3 mL/min; Increase (Pan troglodytes [41]): 30; Increase (Pan troglodytes [42]): 31; Increase (Pan troglodytes [43]): 29
4 | CCC1C(=O)c2cc(OCC(=O)O)c(C)c(C)c2C1=O (stereo unspecified) | 1.2 | 0.061 | 254 | 194 | 314 | 41 | 30 | – | 553 | – | – | – | 1.6 | – | 244 | 114 | 8 | 5 | 6 | – | Delta C urate / delta C insulin (Pan troglodytes [44]): 0.101; Activity (Canis familiaris [45]): 4 mL/min; Activity (Canis familiaris [46]): 24 u equiv min-1; Activity (Canis familiaris [47]): 196 u equiv min-1
5 | NS(=O)(=O)c1cc(C(=O)O)c(NCc2ccco2)cc1Cl [FUROSEMIDE] | – | -0.083 | 749 | – | 928 | 154 | – | 3 | – | 26 | 46 | 28 | 7.3 | -0.005 | – | – | 8 | 31 | 23 | 253 | Urine volume (Canis familiaris [48]): 36 mL; Increase (Pan troglodytes [16]): 0.8 mL/min; Increase (Pan troglodytes [39]): 738; Increase (Pan troglodytes [41]): 961; P Increase (Pan troglodytes [8]): 100; Activity (Canis familiaris [49]): 1081 u equiv min-1; Activity (Canis familiaris [50]): 141 u equiv min-1; Activity (Canis familiaris [51]): 960 u equiv min-1; Activity (Rattus norvegicus [26]): 69; Activity (Rattus norvegicus [27]): 228; Activity (Rattus norvegicus [28]): 71; Activity (Rattus norvegicus [29]): 328; Activity (Rattus norvegicus [30]): 96; Activity (Rattus norvegicus [31]): 60; Activity (Rattus norvegicus [32]): 31; Activity (Rattus norvegicus [33]): 97; Activity (Rattus norvegicus [34]): 39; Activity (Rattus norvegicus [35]): 150; Activity (Rattus norvegicus [36]): 57; Urine volume [37]: 36 mL
